This note sets out measurements from ChEMBL document CHEMBL1201862, “PubChem BioAssay data set” (2004).

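All cell lines were grown in 96-well plates and treated with compound for 48 hours. GI50 is the concentration that inhibits growth by half.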 Activity calls are given as the source filed them. Rule as the data show it: active = GI50 up to about 1.1 µM and inactive = higher.

Among the test systems are RXF 631; HOP-18; DLD-1; DMS-273; KM-20L2; M19-MEL; XF498; LXFL 529; SNB-78.
What all share (assay): inhibition of tumour cell growth, NCI panel, 48 h

As for `O=C1CN(C(=O)c2ccccc2)Cc2[nH]c3ccccc3c21`, the GI50 in the experiment with RXF 631, with HOP-18, in the experiment with DLD-1, in the experiment on DMS-273, in the experiment on KM-20L2 and with M19-MEL was > 100 µM (inactive) each time. Besides, the GI50 with XF498, with LXFL 529 and in the experiment on SNB-78 was > 100 µM (inactive) in each case.

On to `c1cncc(C2N3CCCCC3[C@@H]3c4[nH]c5ccccc5c4CCN23)c1` (some centres not stated), for which the GI50 in the experiment on RXF 631, with HOP-18, in the experiment on DLD-1, with DMS-273, with KM-20L2 and with M19-MEL was > 100 µM (inactive) throughout. Also, the GI50 in the experiment on XF498 was > 100 µM (inactive); in the experiment on LXFL 529, > 100 µM (inactive); in the experiment on SNB-78, 87.1 µM (inactive).

Regarding `C[C@]12CCC(=O)C(O)=C1CC[C@@H]1C2CC[C@]2(C)NC(=O)CCC12` (some centres not stated), the GI50 in the experiment with RXF 631, in the experiment on HOP-18, in the experiment with DMS-273, in the experiment on KM-20L2, in the experiment with M19-MEL and in the experiment on XF498 was > 100 µM (inactive) each time. For the same molecule, the GI50 in the experiment on LXFL 529 and in the experiment on SNB-78 was > 100 µM (inactive) throughout.

As for `CCOC(=O)N1CCc2cc(OC)c(OC)c3c2c1cc1cc(OC)c(OC)cc13`, the GI50 with RXF 631 is 2.42 µM (inactive); in the experiment on HOP-18 it was 28.1 µM (inactive); with DLD-1, 1.3 µM (inactive); with DMS-273, 0.667 µM (active); in the experiment with KM-20L2, 1.36 µM (inactive); in the experiment on M19-MEL, 1.88 µM (inactive). For the same molecule, the values for the GI50 with XF498, with LXFL 529 and with SNB-78 were 0.67 µM (active), 3.78 µM (inactive) and 16.1 µM (inactive), respectively.

Consider `CCNC(=O)O/N=C1\CCC2[C@@H]3CC=C4C[C@@H](OC(=O)NCC)CC[C@]4(C)C3CC[C@]12C` (some centres not stated), for which the GI50 was 4.26 µM (inactive) in the experiment on RXF 631; 1.7 µM (inactive) in the experiment with HOP-18; 6.71 µM (inactive) in the experiment on DLD-1; 1.22 µM (inactive) in the experiment on DMS-273; 2.44 µM (inactive) with KM-20L2; 1.65 µM (inactive) in the experiment with M19-MEL. The GI50 is 0.0792 µM (active) in the experiment on XF498 and 1.01 µM (active) in the experiment with LXFL 529.

Turning to `COc1ccc2oc3c(OC)c(OC)c(OC)cc3c(=O)c2c1`, the GI50 with RXF 631 was > 100 µM (inactive); in the experiment with HOP-18, 0.232 µM (active); in the experiment on DLD-1, > 100 µM (inactive); in the experiment on DMS-273 it was > 100 µM (inactive); in the experiment with KM-20L2, > 100 µM (inactive); with M19-MEL it was > 100 µM (inactive). For the same molecule, the GI50 is > 100 µM (inactive) in the experiment on XF498, > 100 µM (inactive) in the experiment with LXFL 529 and 69.7 µM (inactive) with SNB-78.

For `C/C(N)=[N+](/C)[O-]`, the GI50 was > 100 µM (inactive) with RXF 631; > 100 µM (inactive) in the experiment on HOP-18; 46.6 µM (inactive) in the experiment with DLD-1; > 100 µM (inactive) in the experiment on KM-20L2; 40.5 µM (inactive) in the experiment on M19-MEL; > 100 µM (inactive) in the experiment with XF498. The GI50 in the experiment with LXFL 529 and in the experiment on SNB-78 was > 100 µM (inactive) in each case.

Regarding `N=C(N)NCCCS(=O)(=O)Nc1ccc(Nc2c3ccccc3nc3cc([N+](=O)[O-])ccc23)cc1`, the GI50 with RXF 631 was 25.7 µM (inactive); in the experiment with HOP-18, 20.8 µM (inactive); in the experiment with DLD-1, 30.1 µM (inactive); in the experiment on DMS-273, 4.21 µM (inactive); in the experiment on KM-20L2 it was 23.9 µM (inactive); with M19-MEL, 3.63 µM (inactive). For the same molecule, the GI50 in the experiment on XF498 is 1.91 µM (inactive); in the experiment on LXFL 529 it was 5.62 µM (inactive); in the experiment with SNB-78, 21.4 µM (inactive).

Regarding `COc1cccc2c1C(=O)c1c(O)c3c(c(O)c1C2=O)C[C@@](O)(C(=O)CO)C[C@@H]3OC1CC(N)C(OC)C(C)O1` (some centres not stated), the GI50 in the experiment with RXF 631 is 0.0329 µM (active); in the experiment on HOP-18 it was 0.156 µM (active); in the experiment on DLD-1, 0.0667 µM (active); with DMS-273, 0.0122 µM (active); with KM-20L2 it was 0.148 µM (active); with XF498, < 0.01 µM (active). Also, the GI50 is 0.0776 µM (active) in the experiment on LXFL 529 and 0.207 µM (active) with SNB-78.
